Source: US7462600B2, “Macrolides” (Pfizer Inc, priority 2004, dated 2008)
Converted amounts (≈) assume the structure as drawn. Like-named read-outs stand apart in the source and are kept apart here.

Key:
Format in all cases: cell-based
[1] = system: Streptococcus pneumoniae 1016; assay: MIC, microtiter broth dilution (NCCLS M100-S14), S. pneumoniae 1016 (susceptible)
Outline: (§1)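 Steps: dissolve compound in DMSO to 40 mg/ml stock; dilute in broth across microtiter trays; inoculate strains; record MIC per NCCLS M100-S14.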

[2] = system: Streptococcus pyogenes 1079; assay: MIC, microtiter broth dilution (NCCLS M100-S14), S. pyogenes 1079 (ermB)
Outline: as §1

[3] = system: Streptococcus pneumoniae 1175; conditions: microtiter broth dilution
Outline: as §1

[4] = system: Streptococcus pneumoniae 1095; conditions: microtiter broth dilution
Outline: as §1

[5] = system: Haemophilus influenzae 1218; assay: MIC, microtiter broth dilution (NCCLS M100-S14), H. influenzae 1218 (susceptible)
Outline: as §1

[6] = S. pneumoniae 1016 (susceptible)
[7] = H. influenzae 1218 (susceptible)

| SMILES | MIC S. pneumo. 1016 ([1]; Streptococcus pneumoniae 1016) | MIC S. pyogenes 1079 ([2]; Streptococcus pyogenes 1079) | MIC S. pneumo. 1175 ([3]; Streptococcus pneumoniae 1175) | MIC S. pneumo. 1095 ([4]; Streptococcus pneumoniae 1095) | MIC H. influenzae 1218 ([5]; Haemophilus influenzae 1218) | MIC S. pneumo. 1016 [1, 6] | MIC S. pyogenes 1079 ([2]; S. pyogenes 1079 (ermB)) | MIC S. pneumo. 1175 ([3]; S. pneumoniae 1175 (mefA)) | MIC S. pneumo. 1095 ([4]; S. pneumoniae 1095 (ermB)) | MIC H. influenzae 1218 [5, 7] |
| --- | --- | --- | --- | --- | --- | --- | --- | --- | --- | --- |
| CCC1OC(=O)C(C)C(=O)C(C)C(OC2OC(C)CC(N(C)C)C2O)C(C)(OC)CC(C)C(=O)C(C)C2N(CC3CN(Cc4ccn[nH]4)C3)C(=O)OC12C (stereo not shown) [4.09] | <0.06 µg/mL | >64.00 µg/mL | 0.5 µg/mL (≈ 0.656 µM) | 32 µg/mL (≈ 42 µM) | 0.12 µg/mL (≈ 0.157 µM) |  |  |  |  |  |
| CCC1OC(=O)C(C)C(=O)C(C)C(OC2OC(C)CC(N(C)C)C2O)C(C)(OC)CC(C)C(=O)C(C)C2N(C3CN(S(=O)(=O)c4ccccc4S(C)(=O)=O)C3)C(=O)OC12C (stereo not shown) [Example 3.25, 2-(methylsulfonyl) benzenesulfonyl] | <0.06 µg/mL | >64.00 µg/mL | 0.25 µg/mL (≈ 0.282 µM) | <0.06 µg/mL | 1 µg/mL (≈ 1.13 µM) |  |  |  |  |  |
| CCC1OC(=O)C(C)C(=O)C(C)C(OC2OC(C)CC(N(C)C)C2O)C(C)(OC)CC(C)C(=O)C(C)C2N(CC3CN(Cc4cccc(C#N)c4)C3)C(=O)OC12C (stereo not shown) [4.08] | <0.06 µg/mL | >64.00 µg/mL | <0.06 µg/mL | 32 µg/mL (≈ 40.2 µM) | 0.12 µg/mL (≈ 0.151 µM) |  |  |  |  |  |
| CCC1OC(=O)C(C)C(=O)C(C)C(OC2OC(C)CC(N(C)C)C2O)C(C)(OC)CC(C)C(=O)C(C)C2N(C3CN(Cc4ccnc5cccnc45)C3)C(=O)OC12C (stereo not shown) [Example 1.26, 3-descladinosyl-11,12-dideoxy-6-O-methyl-3-oxo-12,11-(oxycarbonyl-(1-((1,5-naphthyridin4-yl)-methyl)-azetidin-3-yl)-imino)-erythromycin A] | <0.06 µg/mL | 1 µg/mL (≈ 1.23 µM) | <0.06 µg/mL | <0.06 µg/mL | 0.38 µg/mL (≈ 0.469 µM) |  |  |  |  |  |
| CCC1OC(=O)C(C)C(=O)C(C)C(OC2OC(C)CC(N(C)C)C2O)C(C)(OC)CC(C)C(=O)C(C)C2N(C3CN(S(=O)(=O)c4cnn(-c5ccccc5)c4C)C3)C(=O)OC12C (stereo not shown) [Example 3.12, 5-methyl-1-phenyl-1H-pyrazole-4-sulfonyl] | <0.06 µg/mL | 64 µg/mL (≈ 72.1 µM) | <0.06 µg/mL | 1 µg/mL (≈ 1.13 µM) | 4 µg/mL (≈ 4.5 µM) |  |  |  |  |  |
| CCC1OC(=O)C(C)C(=O)C(C)C(OC2OC(C)CC(N(C)C)C2O)C(C)(OC)CC(C)C(=O)C(C)C2N(C3CN(S(=O)(=O)c4ccc(-c5nnn[nH]5)cc4)C3)C(=O)OC12C (stereo not shown) [Example 3.84, 4-(1H-tetrazol-5-yl)benzenesulfonyl] | 1 µg/mL (≈ 1.14 µM) | >64.00 µg/mL | 16 µg/mL (≈ 18.3 µM) | >64.00 µg/mL | 32 µg/mL (≈ 36.5 µM) |  |  |  |  |  |
| CCC1OC(=O)C(C)C(=O)C(C)C(OC2OC(C)CC(N(C)C)C2O)C(C)(OC)CC(C)C(=O)C(C)C2N(C3CN(Cc4cccc(-c5cnco5)c4)C3)C(=O)OC12C (stereo not shown) [Example 1.47, 3-(oxazol-5-yl)benzyl] | <0.06 µg/mL | 64 µg/mL (≈ 77.6 µM) | <0.06 µg/mL | <0.06 µg/mL | 0.25 µg/mL (≈ 0.303 µM) |  |  |  |  |  |
| CC[C@H]1OC(=O)[C@H](C)C(=O)[C@H](C)[C@@H](O[C@@H]2O[C@H](C)C[C@H](N(C)C)[C@H]2O)[C@](C)(OC)C[C@@H](C)C(=O)[C@H](C)[C@H]2N(CC3(O)CN(Cc4ccno4)C3)C(=O)O[C@]12C [7.11] |  |  |  |  |  | <0.06 µg/mL | >64.00 µg/mL | 0.5 µg/mL (≈ 0.642 µM) | 4 µg/mL (≈ 5.14 µM) | 2 µg/mL (≈ 2.57 µM) |
| CCC1OC(=O)C(C)C(=O)C(C)C(OC2OC(C)CC(N(C)C)C2O)C(C)(OC)CC(C)C(=O)C(C)C2N(CC3CN(C(=O)c4cccc5ncccc45)C3)C(=O)OC12C (stereo not shown) [4.32] | <0.06 µg/mL | 64 µg/mL (≈ 76.5 µM) | <0.06 µg/mL | 0.5 µg/mL (≈ 0.597 µM) | 1 µg/mL (≈ 1.19 µM) |  |  |  |  |  |
| CCC1OC(=O)C(C)C(=O)C(C)C(OC2OC(C)CC(N(C)C)C2O)C(C)(OC)CC(C)C(=O)C(C)C2N(C3CN(C(=O)c4cccc5[nH]c(C)nc45)C3)C(=O)OC12C (stereo not shown) [Example 2.02] | <0.06 µg/mL | >64.00 µg/mL | 2 µg/mL (≈ 2.42 µM) | >64.00 µg/mL | 2 µg/mL (≈ 2.42 µM) |  |  |  |  |  |
| CCC1OC(=O)C(C)C(=O)C(C)C(OC2OC(C)CC(N(C)C)C2O)C(C)(OC)CC(C)C(=O)C(C)C2N(C3CCN(Cc4cncc5ccccc45)C3)C(=O)OC12C (stereo not shown) [Example 9.10, (isoquinolin-4-yl)methyl] |  |  |  |  |  | <0.06 µg/mL | 64 µg/mL (≈ 77.8 µM) | 0.25 µg/mL (≈ 0.304 µM) | 8 µg/mL (≈ 9.72 µM) | 0.5 µg/mL (≈ 0.608 µM) |
